From ChEMBL document CHEMBL4507267 (2021)

Columns and labels:
Settings in all cases: Compound concentration 1000.0 nM
[1] = target: Serine/threonine-protein kinase N1 (Homo sapiens) (UniProt Q16512)
[2] = target: Myosin light chain kinase (Homo sapiens) (UniProt Q32MK0)
[3] = target: Receptor tyrosine-protein kinase erbB-4 (Homo sapiens) (UniProt Q15303)
[4] = target: Protein kinase C theta type (Homo sapiens) (UniProt Q04759)
[5] = target: Vascular endothelial growth factor receptor 2 (Homo sapiens) (UniProt P35968)
[6] = target: Cytoplasmic tyrosine-protein kinase BMX (Homo sapiens) (UniProt P51813)
[7] = target: Ribosomal protein S6 kinase alpha-5 (Homo sapiens) (UniProt O75582)
[8] = system: Receptor-type tyrosine-protein kinase FLT3 (Homo sapiens), P36888 [D835H]
[9] = target: Mitogen-activated protein kinase kinase kinase kinase 3 (Homo sapiens) (UniProt Q8IVH8)
[10] = system: Receptor-type tyrosine-protein kinase FLT3 (Homo sapiens), P36888 [UNDEFINED MUTATION]
[11] = target: LIM domain kinase 1 (Homo sapiens) (UniProt P53667)
[12] = target: Serine/threonine-protein kinase/endoribonuclease IRE1 (Homo sapiens) (UniProt O75460)
[13] = target: Platelet-derived growth factor receptor alpha (Homo sapiens) (UniProt P16234)
[14] = target: cGMP-dependent protein kinase 2 (Homo sapiens) (UniProt Q13237)
[15] = target: Receptor-type tyrosine-protein kinase FLT3 (Homo sapiens) (UniProt P36888)
[16] = target: Serine/threonine-protein kinase MRCK alpha (Homo sapiens) (UniProt Q5VT25)
[17] = target: Serine/threonine-protein kinase PLK4 (Homo sapiens) (UniProt O00444)
[18] = system: Receptor-type tyrosine-protein kinase FLT3 (Homo sapiens), P36888 [UNDEFINED MUTATION]; remark: listed apart in the source
[19] = system: Tyrosine-protein kinase ABL1 (Homo sapiens), P00519 [Q252H]
[20] = target: Macrophage colony-stimulating factor 1 receptor (Homo sapiens) (UniProt P07333)
[21] = target: Dual specificity protein kinase CLK3 (Homo sapiens) (UniProt P49761)
[22] = target: Inhibitor of nuclear factor kappa-B kinase subunit epsilon (Homo sapiens) (UniProt Q14164)
[23] = system: Phosphatidylinositol 4,5-bisphosphate 3-kinase catalytic subunit alpha isoform (Homo sapiens), P42336 [C420R]
[24] = system: Mast/stem cell growth factor receptor Kit (Homo sapiens), P10721 [V559D,T670I]
[25] = target: Mitogen-activated protein kinase 12 (Homo sapiens) (UniProt P53778)
[26] = target: Serine/threonine-protein kinase 17B (Homo sapiens) (UniProt O94768)
[27] = system: Phosphatidylinositol 4,5-bisphosphate 3-kinase catalytic subunit alpha isoform (Homo sapiens), P42336 [E545K]
[28] = target: Dual specificity protein kinase CLK2 (Homo sapiens) (UniProt P49760)
[29] = target: Serine/threonine-protein kinase PknB (Mycobacterium tuberculosis) (UniProt P9WI81)
[30] = target: Ribosomal protein S6 kinase alpha-4 (Homo sapiens) (UniProt O75676)
[31] = target: Serine/threonine-protein kinase mTOR (Homo sapiens) (UniProt P42345)
[32] = target: Serine/threonine-protein kinase Nek10 (Homo sapiens) (UniProt Q6ZWH5)
[33] = target: Serine/threonine-protein kinase PAK 5 (Homo sapiens) (UniProt Q9P286)
[34] = target: Tyrosine-protein kinase ABL1 (Homo sapiens) (UniProt P00519)
[35] = target: Ephrin type-B receptor 6 (Homo sapiens) (UniProt O15197)
[36] = target: Serine/threonine-protein kinase STK11 (Homo sapiens) (UniProt Q15831)
[37] = target: Mitogen-activated protein kinase 15 (Homo sapiens) (UniProt Q8TD08)
[38] = system: Tyrosine-protein kinase ABL1 (Homo sapiens), P00519 [F317L]
[39] = target: Hepatocyte growth factor receptor (Homo sapiens) (UniProt P08581)
[40] = target: Mitogen-activated protein kinase kinase kinase 20 (Homo sapiens) (UniProt Q9NYL2)
[41] = target: NT-3 growth factor receptor (Homo sapiens) (UniProt Q16288)
[42] = target: Cyclin-dependent kinase 16 (Homo sapiens) (UniProt Q00536)
[43] = target: Cyclin-dependent kinase 13 (Homo sapiens) (UniProt Q14004)
[44] = target: Mast/stem cell growth factor receptor Kit (Homo sapiens) (UniProt P10721)
[45] = target: Serine/threonine-protein kinase Nek7 (Homo sapiens) (UniProt Q8TDX7)

Measured: residual activity

Sequence of Phosphatidylinositol 4,5-bisphosphate 3-kinase catalytic subunit alpha isoform (Homo sapiens), P42336 [E545K] (P42336 whole entry E545K, canonical isoform): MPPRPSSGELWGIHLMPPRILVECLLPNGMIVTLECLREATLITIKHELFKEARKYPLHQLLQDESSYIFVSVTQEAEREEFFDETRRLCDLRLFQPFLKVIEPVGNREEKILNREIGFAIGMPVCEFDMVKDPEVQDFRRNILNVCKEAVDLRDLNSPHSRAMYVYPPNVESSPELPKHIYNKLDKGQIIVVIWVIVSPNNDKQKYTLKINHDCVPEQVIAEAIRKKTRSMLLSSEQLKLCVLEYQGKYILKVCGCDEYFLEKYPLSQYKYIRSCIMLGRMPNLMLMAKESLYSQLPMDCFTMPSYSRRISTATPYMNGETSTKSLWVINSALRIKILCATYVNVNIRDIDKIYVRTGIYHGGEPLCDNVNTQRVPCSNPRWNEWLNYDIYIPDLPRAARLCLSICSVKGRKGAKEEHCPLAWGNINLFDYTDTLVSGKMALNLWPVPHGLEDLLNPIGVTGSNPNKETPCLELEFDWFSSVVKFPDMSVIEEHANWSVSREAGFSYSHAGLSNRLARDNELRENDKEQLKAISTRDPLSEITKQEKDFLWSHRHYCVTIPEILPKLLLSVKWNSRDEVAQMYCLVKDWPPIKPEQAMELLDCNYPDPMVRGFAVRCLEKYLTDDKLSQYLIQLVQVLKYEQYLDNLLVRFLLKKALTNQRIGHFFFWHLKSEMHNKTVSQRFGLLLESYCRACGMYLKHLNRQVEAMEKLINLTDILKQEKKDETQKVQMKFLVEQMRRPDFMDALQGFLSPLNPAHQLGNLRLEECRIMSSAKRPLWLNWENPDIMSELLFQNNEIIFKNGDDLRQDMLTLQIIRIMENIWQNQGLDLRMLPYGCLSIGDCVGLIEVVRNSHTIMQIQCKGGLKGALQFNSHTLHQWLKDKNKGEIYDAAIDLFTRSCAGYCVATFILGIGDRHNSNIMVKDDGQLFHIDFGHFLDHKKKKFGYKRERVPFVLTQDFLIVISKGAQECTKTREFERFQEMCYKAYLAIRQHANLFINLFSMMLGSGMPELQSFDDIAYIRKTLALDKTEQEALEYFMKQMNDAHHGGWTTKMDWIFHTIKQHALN
Sequence of Ribosomal protein S6 kinase alpha-5 (Homo sapiens) (O75582 whole entry, looked up): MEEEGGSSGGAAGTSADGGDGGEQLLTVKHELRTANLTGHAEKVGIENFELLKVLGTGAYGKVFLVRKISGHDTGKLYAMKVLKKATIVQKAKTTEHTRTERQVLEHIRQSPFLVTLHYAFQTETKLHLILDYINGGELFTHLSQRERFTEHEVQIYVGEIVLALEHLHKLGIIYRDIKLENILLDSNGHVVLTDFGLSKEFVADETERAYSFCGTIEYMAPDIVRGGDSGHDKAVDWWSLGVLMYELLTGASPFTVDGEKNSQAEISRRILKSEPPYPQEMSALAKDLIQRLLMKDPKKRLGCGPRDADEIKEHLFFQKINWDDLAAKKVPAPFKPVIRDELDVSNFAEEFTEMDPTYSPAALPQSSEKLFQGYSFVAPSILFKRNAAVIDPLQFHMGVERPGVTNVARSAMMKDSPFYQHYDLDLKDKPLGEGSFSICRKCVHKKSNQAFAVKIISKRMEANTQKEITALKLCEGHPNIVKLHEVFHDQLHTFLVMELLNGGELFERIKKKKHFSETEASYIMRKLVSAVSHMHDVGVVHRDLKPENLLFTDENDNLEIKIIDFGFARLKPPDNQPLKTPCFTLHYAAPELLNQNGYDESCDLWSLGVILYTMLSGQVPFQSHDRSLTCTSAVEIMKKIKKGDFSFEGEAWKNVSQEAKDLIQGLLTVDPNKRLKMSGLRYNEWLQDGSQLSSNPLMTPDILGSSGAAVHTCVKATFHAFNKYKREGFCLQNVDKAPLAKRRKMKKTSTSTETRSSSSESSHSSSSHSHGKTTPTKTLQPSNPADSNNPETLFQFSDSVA
Sequence of Serine/threonine-protein kinase N1 (Homo sapiens) (Q16512 2-942 limits assumed): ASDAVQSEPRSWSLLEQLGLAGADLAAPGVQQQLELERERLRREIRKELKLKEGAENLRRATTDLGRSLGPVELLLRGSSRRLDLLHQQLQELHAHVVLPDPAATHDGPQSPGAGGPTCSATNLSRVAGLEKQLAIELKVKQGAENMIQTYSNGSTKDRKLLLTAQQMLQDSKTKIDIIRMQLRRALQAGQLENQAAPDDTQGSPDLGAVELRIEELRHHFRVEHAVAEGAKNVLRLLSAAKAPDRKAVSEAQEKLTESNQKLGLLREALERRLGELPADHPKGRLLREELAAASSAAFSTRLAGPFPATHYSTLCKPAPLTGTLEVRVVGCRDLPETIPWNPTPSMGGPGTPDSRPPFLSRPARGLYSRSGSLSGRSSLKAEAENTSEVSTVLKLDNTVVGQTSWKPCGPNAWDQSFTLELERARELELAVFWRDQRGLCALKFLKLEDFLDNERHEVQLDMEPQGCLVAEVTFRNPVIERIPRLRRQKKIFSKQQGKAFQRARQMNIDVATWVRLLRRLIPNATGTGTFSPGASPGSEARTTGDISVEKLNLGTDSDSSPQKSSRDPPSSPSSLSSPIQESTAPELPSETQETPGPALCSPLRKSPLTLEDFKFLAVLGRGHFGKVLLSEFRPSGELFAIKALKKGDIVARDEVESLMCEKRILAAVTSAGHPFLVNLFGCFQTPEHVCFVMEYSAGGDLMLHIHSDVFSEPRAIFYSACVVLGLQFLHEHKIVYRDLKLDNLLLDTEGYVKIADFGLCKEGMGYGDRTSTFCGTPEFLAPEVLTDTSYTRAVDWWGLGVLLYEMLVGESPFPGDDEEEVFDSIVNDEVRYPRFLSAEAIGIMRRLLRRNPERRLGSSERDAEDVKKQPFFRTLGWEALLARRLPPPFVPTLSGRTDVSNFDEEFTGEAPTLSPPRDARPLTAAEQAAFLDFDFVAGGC
Sequence of Dual specificity protein kinase CLK2 (Homo sapiens) (P49760 whole entry, looked up): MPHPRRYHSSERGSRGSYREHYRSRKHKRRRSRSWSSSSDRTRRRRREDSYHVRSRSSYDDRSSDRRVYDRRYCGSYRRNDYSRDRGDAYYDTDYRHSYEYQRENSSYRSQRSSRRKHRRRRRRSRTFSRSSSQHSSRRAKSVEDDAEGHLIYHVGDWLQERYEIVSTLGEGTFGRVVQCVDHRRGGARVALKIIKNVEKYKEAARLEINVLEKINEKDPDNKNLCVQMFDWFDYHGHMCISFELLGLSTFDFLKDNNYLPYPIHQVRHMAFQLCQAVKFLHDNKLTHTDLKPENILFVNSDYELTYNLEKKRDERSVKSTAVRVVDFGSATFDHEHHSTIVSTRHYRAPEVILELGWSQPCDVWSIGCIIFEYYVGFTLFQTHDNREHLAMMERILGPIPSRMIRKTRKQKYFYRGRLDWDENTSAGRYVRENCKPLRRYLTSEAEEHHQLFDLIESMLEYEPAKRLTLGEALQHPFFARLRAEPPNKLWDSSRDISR
Sequence of Mitogen-activated protein kinase 15 (Homo sapiens) (Q8TD08 whole entry): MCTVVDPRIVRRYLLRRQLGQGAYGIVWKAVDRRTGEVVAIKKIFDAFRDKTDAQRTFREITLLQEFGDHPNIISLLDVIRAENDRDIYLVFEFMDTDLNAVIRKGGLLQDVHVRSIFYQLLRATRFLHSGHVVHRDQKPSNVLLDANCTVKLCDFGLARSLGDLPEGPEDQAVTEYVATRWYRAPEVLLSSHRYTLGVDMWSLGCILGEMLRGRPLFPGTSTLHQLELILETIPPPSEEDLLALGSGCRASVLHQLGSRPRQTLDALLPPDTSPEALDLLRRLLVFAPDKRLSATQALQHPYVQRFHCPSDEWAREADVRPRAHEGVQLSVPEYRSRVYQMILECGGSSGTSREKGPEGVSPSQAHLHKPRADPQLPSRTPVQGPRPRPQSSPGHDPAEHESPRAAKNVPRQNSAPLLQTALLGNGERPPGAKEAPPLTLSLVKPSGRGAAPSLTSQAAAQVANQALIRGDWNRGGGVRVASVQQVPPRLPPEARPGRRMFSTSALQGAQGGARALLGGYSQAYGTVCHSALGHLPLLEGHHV
Sequence of Mitogen-activated protein kinase kinase kinase 20 (Homo sapiens) (Q9NYL2 2-800 limits assumed): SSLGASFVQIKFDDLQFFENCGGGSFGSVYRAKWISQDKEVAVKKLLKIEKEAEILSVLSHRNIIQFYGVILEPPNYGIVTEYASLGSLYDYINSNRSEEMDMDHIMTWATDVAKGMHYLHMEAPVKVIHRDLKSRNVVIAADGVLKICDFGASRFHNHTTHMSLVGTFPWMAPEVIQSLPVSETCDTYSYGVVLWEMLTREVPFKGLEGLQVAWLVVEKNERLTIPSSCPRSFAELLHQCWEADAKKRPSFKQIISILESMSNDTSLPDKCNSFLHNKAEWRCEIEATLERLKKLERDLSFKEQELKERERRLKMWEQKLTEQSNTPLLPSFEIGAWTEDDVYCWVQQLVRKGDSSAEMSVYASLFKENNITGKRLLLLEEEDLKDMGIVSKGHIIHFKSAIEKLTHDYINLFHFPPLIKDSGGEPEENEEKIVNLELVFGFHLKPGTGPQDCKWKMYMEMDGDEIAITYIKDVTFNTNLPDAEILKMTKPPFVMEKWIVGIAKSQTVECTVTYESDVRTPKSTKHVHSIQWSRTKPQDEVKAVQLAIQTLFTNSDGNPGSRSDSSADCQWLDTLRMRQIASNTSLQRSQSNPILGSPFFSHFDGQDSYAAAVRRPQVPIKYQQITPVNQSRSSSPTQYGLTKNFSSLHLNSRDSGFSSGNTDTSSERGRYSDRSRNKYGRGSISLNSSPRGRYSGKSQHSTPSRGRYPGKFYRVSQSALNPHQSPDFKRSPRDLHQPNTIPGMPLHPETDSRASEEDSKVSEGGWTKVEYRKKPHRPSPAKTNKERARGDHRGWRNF
Sequence of Serine/threonine-protein kinase Nek7 (Homo sapiens) (Q8TDX7 whole entry, looked up): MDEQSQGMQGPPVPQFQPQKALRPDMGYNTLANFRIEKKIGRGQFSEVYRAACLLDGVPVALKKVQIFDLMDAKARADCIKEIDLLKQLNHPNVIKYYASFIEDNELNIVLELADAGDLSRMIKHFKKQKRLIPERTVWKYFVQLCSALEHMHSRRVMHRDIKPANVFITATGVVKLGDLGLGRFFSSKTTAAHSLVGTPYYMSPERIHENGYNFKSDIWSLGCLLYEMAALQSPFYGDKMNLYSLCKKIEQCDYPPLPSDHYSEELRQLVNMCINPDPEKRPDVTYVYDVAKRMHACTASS

Cc1c(NC(=O)c2cc(C(N)=O)nc3cc(F)ccc23)c(C(F)(F)F)nn1Cc1ccc(C(C)(C)C)cc1 [BAY-588]
inactive: [1] 100% | [2] 100% | [3] 98% | [4] 91% | [5] 100% | [6] 88% | [7] 89% | [8] 79% | [9] 98% | [10] 95% | [11] 100% | [12] 89% | [13] 100% | [14] 100% | [15] 100% | [16] 100% | [17] 100% | [18] 100% | [19] 84% | [20] 100% | [21] 100% | [22] 100% | [23] 100% | [24] 100% | [25] 56% | [26] 100% | [27] 100% | [28] 76% | [29] 95% | [30] 100% | [31] 86% | [32] 100% | [33] 100% | [34] 96% | [35] 100% | [36] 100% | [37] 56% | [38] 100% | [39] 100% | [40] 100% | [41] 100% | [42] 100% | [43] 100% | [44] 100% | [45] 100%

Cc1c(NC(=O)c2cc(C(N)=O)nc3cc(F)ccc23)c(C(F)(F)F)nn1Cc1ccc(C#N)cc1 [BAY-876]
inactive: [1] 98% | [2] 79% | [3] 95% | [4] 80% | [5] 80% | [6] 85% | [7] 100% | [8] 100% | [9] 99% | [10] 80% | [11] 78% | [12] 78% | [13] 73% | [14] 74% | [15] 99% | [16] 97% | [17] 100% | [18] 68% | [19] 100% | [20] 100% | [21] 100% | [22] 75% | [23] 70% | [24] 89% | [25] 86% | [26] 72% | [27] 73% | [28] 89% | [29] 78% | [30] 85% | [31] 93% | [32] 83% | [33] 92% | [34] 84% | [35] 75% | [36] 100% | [37] 100% | [38] 88% | [39] 100% | [40] 100% | [41] 69% | [42] 100% | [43] 87% | [44] 72% | [45] 99%
